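All cell lines were grown in 96-well plates and treated with compound for 48 hours. TGI: concentration producing complete growth inhibition.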
Tests used:
Test in all cases: NCI tumour cell line growth inhibition, 48 h
A498 renal = tested on: A498 renal
A549 NSCLC = tested on: A549 NSCLC
ACHN renal = tested on: ACHN renal
CAKI-1 renal = tested on: CAKI-1 renal
COLO 205 colon = tested on: COLO 205 colon
DU-145 prostate = tested on: DU-145 prostate
EKVX NSCLC = tested on: EKVX NSCLC
HCT-15 colon = tested on: HCT-15 colon
HOP-92 NSCLC = tested on: HOP-92 NSCLC
HT29 colon = tested on: HT29 colon
IGROV1 ovarian = tested on: IGROV1 ovarian
KM12 colon = tested on: KM12 colon
M14 melanoma = tested on: M14 melanoma
MDA-MB-231 breast = tested on: MDA-MB-231 breast
MDA-MB-435 = tested on: MDA-MB-435
MDA-N = tested on: MDA-N
NCI-H23 lung = tested on: NCI-H23 lung
NCI/ADR-RES ovarian = tested on: NCI/ADR-RES ovarian
OVCAR-3 ovarian = tested on: OVCAR-3 ovarian
OVCAR-4 ovarian = tested on: OVCAR-4 ovarian
OVCAR-5 ovarian = tested on: OVCAR-5 ovarian
OVCAR-8 ovarian = tested on: OVCAR-8 ovarian
PC-3 prostate = tested on: PC-3 prostate
RXF 393 renal = tested on: RXF 393 renal
SF-268 CNS = tested on: SF-268 CNS
SF-295 CNS = tested on: SF-295 CNS
SK-MEL-28 melanoma = tested on: SK-MEL-28 melanoma
SK-MEL-5 melanoma = tested on: SK-MEL-5 melanoma
SN12C renal = tested on: SN12C renal
SNB-19 CNS = tested on: SNB-19 CNS
SNB-75 CNS = tested on: SNB-75 CNS
SW-620 colon = tested on: SW-620 colon
TK-10 renal = tested on: TK-10 renal
U251 CNS = tested on: U251 CNS
UO-31 renal = tested on: UO-31 renal
786-0 renal = tested on: 786-0 renal
CCRF-CEM leukemia = tested on: CCRF-CEM leukemia
HCC-2998 colon = tested on: HCC-2998 colon
HCT-116 colon = tested on: HCT-116 colon
HL-60(TB) leukemia = tested on: HL-60(TB) leukemia
HOP-62 NSCLC = tested on: HOP-62 NSCLC
HS 578T breast = tested on: HS 578T breast
K-562 leukemia = tested on: K-562 leukemia
LOX IMVI melanoma = tested on: LOX IMVI melanoma
MALME-3M melanoma = tested on: MALME-3M melanoma
NCI-H226 lung = tested on: NCI-H226 lung
NCI-H460 lung = tested on: NCI-H460 lung
NCI-H522 lung = tested on: NCI-H522 lung
RPMI-8226 leukemia = tested on: RPMI-8226 leukemia
SK-MEL-2 melanoma = tested on: SK-MEL-2 melanoma
SK-OV-3 ovarian = tested on: SK-OV-3 ovarian
SR leukemia = tested on: SR leukemia
T-47D breast = tested on: T-47D breast
UACC-257 melanoma = tested on: UACC-257 melanoma
UACC-62 melanoma = tested on: UACC-62 melanoma

Work on C[N+]12CCN(c3ccccc31)c1ccccc12 yielded a TGI (A498 renal) of over 10000 nM, a TGI (A549 NSCLC) of over 10 µM and a TGI (ACHN renal) of over 10000 nM. The TGI (CAKI-1 renal) was over 10 µM, the TGI (COLO 205 colon) was over 10000 nM and the TGI (DU-145 prostate) was over 10 µM. The TGI (EKVX NSCLC) was over 10 µM, the TGI (HCT-15 colon) was over 10 µM and the TGI (HOP-92 NSCLC) was over 10 µM. For the same molecule, the TGI (HT29 colon) was over 10 µM, the TGI (IGROV1 ovarian) was over 10000 nM and the TGI (KM12 colon) was over 10 µM. The TGI (M14 melanoma) was over 10000 nM, the TGI (MDA-MB-231 breast) was over 10 µM and the TGI (MDA-MB-435) was over 10 µM. The TGI (MDA-N) was 8.56 µM, the TGI (NCI-H23 lung) was over 10 µM and the TGI (NCI/ADR-RES ovarian) was over 10000 nM. For the same molecule, the TGI (OVCAR-3 ovarian) was over 10 µM, the TGI (OVCAR-4 ovarian) was over 10 µM and the TGI (OVCAR-5 ovarian) was over 10 µM. The TGI (OVCAR-8 ovarian) was over 10000 nM, the TGI (PC-3 prostate) was over 10 µM and the TGI (RXF 393 renal) was over 10000 nM. For the same molecule, the TGI (SF-268 CNS) was over 10 µM, the TGI (SF-295 CNS) was over 10 µM and the TGI (SK-MEL-28 melanoma) was over 10 µM. The TGI (SK-MEL-5 melanoma) was 5420 nM, the TGI (SN12C renal) was over 10 µM and the TGI (SNB-19 CNS) was over 10 µM. The TGI (SNB-75 CNS) was over 10 µM, the TGI (SW-620 colon) was over 10 µM and the TGI (TK-10 renal) was over 10 µM. It also gave a TGI (U251 CNS) of over 10 µM and a TGI (UO-31 renal) of over 10 µM.

Cc1cccc(/C=N\NC(=S)N2CCCCC2)n1 was tested, and the TGI (786-0 renal) was 20.8 µM, the TGI (A498 renal) was 347 nM and the TGI (A549 NSCLC) was over 100 µM. The TGI (ACHN renal) was 863 nM, the TGI (CAKI-1 renal) was 3.62 µM and the TGI (CCRF-CEM leukemia) was 225 nM. For the same molecule, the TGI (COLO 205 colon) was 220 nM, the TGI (DU-145 prostate) was over 100 µM and the TGI (EKVX NSCLC) was over 100 µM. It also gave a TGI (HCC-2998 colon) of over 100 µM, a TGI (HCT-116 colon) of 125 nM and a TGI (HCT-15 colon) of over 100 µM. It also gave a TGI (HL-60(TB) leukemia) of 265 nM, a TGI (HOP-62 NSCLC) of 525 nM and a TGI (HOP-92 NSCLC) of over 100 µM. It also gave a TGI (HS 578T breast) of over 100 µM, a TGI (HT29 colon) of over 100 µM and a TGI (IGROV1 ovarian) of 70.2 nM. It also gave a TGI (K-562 leukemia) of over 100 µM, a TGI (KM12 colon) of over 100 µM and a TGI (LOX IMVI melanoma) of 41.6 µM. It also gave a TGI (M14 melanoma) of 406 nM, a TGI (MALME-3M melanoma) of over 100 µM and a TGI (MDA-MB-435) of over 100 µM. For the same molecule, the TGI (MDA-N) was over 100 µM, the TGI (NCI-H226 lung) was 747 nM and the TGI (NCI-H23 lung) was over 100 µM. The TGI (NCI-H460 lung) was 788 nM, the TGI (NCI-H522 lung) was over 100 µM and the TGI (NCI/ADR-RES ovarian) was 430 nM. For the same molecule, the TGI (OVCAR-5 ovarian) was over 100 µM, the TGI (OVCAR-8 ovarian) was 582 nM and the TGI (PC-3 prostate) was over 100 µM. It also gave a TGI (RPMI-8226 leukemia) of 502 nM, a TGI (RXF 393 renal) of 593 nM and a TGI (SF-268 CNS) of over 100 µM. For the same molecule, the TGI (SF-295 CNS) was 6.58 µM, the TGI (SK-MEL-2 melanoma) was over 100 µM and the TGI (SK-MEL-28 melanoma) was over 100 µM. The TGI (SK-MEL-5 melanoma) was 187 nM, the TGI (SK-OV-3 ovarian) was over 100 µM and the TGI (SN12C renal) was 9.38 µM. It also gave a TGI (SNB-19 CNS) of over 100 µM, a TGI (SNB-75 CNS) of 9.32 µM and a TGI (SR leukemia) of 123 nM. The TGI (SW-620 colon) was over 100 µM, the TGI (T-47D breast) was over 100 µM and the TGI (U251 CNS) was over 100 µM. It also gave a TGI (UACC-257 melanoma) of 58.9 nM, a TGI (UACC-62 melanoma) of 3.81 µM and a TGI (UO-31 renal) of 26.2 µM.
